The source of these data is patent publication US10966955B2, “Ocular drug delivery system and uses thereof” (Chang Gung University, priority 2020, dated 2021).

Data set [1] in a line: In vitro drug release of the ocular drug delivery system in sPLA2 solution (HPLC). It counts as physicochemical. How it is done: A suitable amount of the ocular drug delivery system obtained in Example 1 was immersed in 1 mL of a sPLA2 solution (containing 0.1 mg/mL sPLA2), followed by incubation at 37° C. with reciprocal shaking (100 rpm) in a thermostatically controlled water bath for a designated time period ranging from 0 minutes to 168 hours. Sample solutions were taken at each time point of 0, 1, 2, 3, 4, 5, 12, 24, 48, 72, 96, 120, 144, and 168 hours. The sample solutions thus obtained were centrifuged at 1000 rpm for 3 minutes. The resultant supernatants were collected and then subjected to high performance liquid chromatography (HPLC) analysis using a L-2400 UV detector, a L-2130 pump (Hitachi, Tokyo, Japan), and a Mightysil RP-18 column (Kanto Chemical, Tokyo, Japan). The HPLC operating conditions applied were described as follows. The mobile phase was 90% water with 0.1% trifluroacetic acid and 10% acetonitrile, and the flow rate of the mobile phase was 1 mL/min. The injection volume was 10 μL. The elution peak was detected by measuring absorbance at 280 nm (for EGCG), 305 nm (for β-1,3 glucan), and 274 nm (for SB-431542), respectively. The amount of EGCG released from the sPLA2 hydrolysable liposomes was calculated with reference to a standard calibration curve of EGCG. Results from five independent measurements were averaged and further used to calculate the cumulative released amount of EGCG.

Data set [2] can be described thus: In vitro drug release of the ocular drug delivery system in hyaluronidase solution (HPLC). It counts as physicochemical. The note with it: for release rate compared with the other drugs (in words): hyaluronidase solution, EGCG in sPLA2 solution. How it is done: A suitable amount of the ocular drug delivery system obtained in Example 1 was immersed in 1 mL of a sPLA2 solution (containing 0.1 mg/mL sPLA2), followed by incubation at 37° C. with reciprocal shaking (100 rpm) in a thermostatically controlled water bath for a designated time period ranging from 0 minutes to 168 hours. Sample solutions were taken at each time point of 0, 1, 2, 3, 4, 5, 12, 24, 48, 72, 96, 120, 144, and 168 hours.
The sample solutions thus obtained were centrifuged at 1000 rpm for 3 minutes. The resultant supernatants were collected and then subjected to high performance liquid chromatography (HPLC) analysis using a L-2400 UV detector, a L-2130 pump (Hitachi, Tokyo, Japan), and a Mightysil RP-18 column (Kanto Chemical, Tokyo, Japan).
The HPLC operating conditions applied were described as follows. The mobile phase was 90% water with 0.1% trifluroacetic acid and 10% acetonitrile, and the flow rate of the mobile phase was 1 mL/min. The injection volume was 10 μL. The elution peak was detected by measuring absorbance at 280 nm (for EGCG), 305 nm (for β-1,3 glucan), and 274 nm (for SB-431542), respectively.
The release profile of β-1,3-glucan from the first HA-SH nanoparticles and the release profile of SB-431542 from the second HA-SH nanoparticles were evaluated substantially according to the procedures as described above, except that the ocular drug delivery system was immersed in 1 mL of a hyaluronidase solution (containing 100 U/mL hyaluronidase).

The next data set concerns SIRC cells. Briefly: Cell migration assay of SIRC cells. In kind it is cell-based, rabbit. The following applies: cell-free gap about 180 μm, 18 hours. As to the method:
(b) Rabbit corneal epithelial (SIRC) cells (BCRC NO: 60093) were obtained from the Bioresources Collection and Research Center (BCRC) of Food Industry Research and Development Institute (FIRDI) (Hsinchu, Taiwan). The SIRC cells were grown in a regular growth medium containing minimum essential medium (MEM) and 10% fetal bovine serum (FBS), and were cultivated in a humidified atmosphere (5% CO2, 37° C.).
A cell culture insert was placed into each well of a 12-well culture plate. The SIRC cells were seeded into the culture tanks on both sides of the culture insert at a cell number of 1×10^4 cells and then incubated overnight to allow cell attachment. Thereafter, the culture insert was removed to create a cell-free gap with a width of about 180 μm, and then the liquid in each well was removed. Each well was washed three times with phosphate-buffered saline (PBS), followed by addition of 200 μL of Eagle's minimum essential medium (MEM). […]
At 0 and 18 hours after incubation, the cell migration profile of the SIRC cells in each group was photographed using an inverted phase contrast microscope (Nikon, Melville, N.Y., USA), and the width of the cell-free gap was measured by ImageJ software. The cell migration rate (%) was calculated using the following Equation (I): Cell migration rate (%)=[A−B)/A]×100 (I) […]

On to `O=C(O[C@@H]1Cc2c(O)cc(O)cc2O[C@@H]1c1cc(O)c(O)c(O)c1)c1cc(O)c(O)c(O)c1` [EGCG, epigallocatechin gallate], for which, in data set [1] (within 8 hours following initiation of the release test, sPLA2 solution), the “release of EGCG (in words)” value is on record as “released in a large amount”. Also, the “cumulative release rate of EGCG from the sPLA2 hydrolysable liposomes” value in data set [1] (within 20 hours, 0.1 mg/mL sPLA2 solution, 37° C.) turned out to be 90%.
Turning to `NC(=O)c1ccc(-c2nc(-c3ccc4c(c3)OCO4)c(-c3ccccn3)[nH]2)cc1` [SB-431542], the “cumulative release rate of SB-431542 from the second HA-SH nanoparticles” value in data set [2] (at the 160th hour after initiation of the release test, 100 U/mL hyaluronidase solution, 37° C.) was found to be 80%. Besides, the “release rate compared with the other drugs (in words)” value in data set [2] was “slower than those of EGCG and β-1,3 glucan”.
Take β-1,3-glucan [β-1,3 glucan]: in data set [2], the “release rate compared with the other drugs (in words)” value is on record as “slower than that of EGCG”. For the same molecule, the “cumulative release rate of β-1,3 glucan from the first HA-SH nanoparticles” value in data set [2] (within 70 hours after initiation of the release test, 100 U/mL hyaluronidase solution, 37° C.) came out at 90%. In addition, the “Cell migration rate (%)” value with SIRC cells was determined as 73%.
